Data: US20260240847A1, “COMPOUNDS WITH ANTI-TUMOR ACTIVITY AGAINST CANCER CELLS BEARING TYROSINE KINASE INHIBITOR RESISTANT EGFR MUTATIONS” (BOARD OF REGENTS, THE UNIVERSITY OF TEXAS SYSTEM, priority 2019, published 2026)

Legend:
Assay in all cases: Ba/F3 cell viability, Cell Titer Glo
EGFR E709AG719S = EGFR E709AG719S (Homo sapiens, UniProt P00533, E709A/G719S); details: read-out: IC50 Values; Ba/F3 cells expressing EGFR E709AG719S, 72 hours
Method: (§1) Cell viability was determined by the Cell Titer Glo assay.
(§2) Briefly, stable Ba/F3 cell lines were generated by retroviral transduction of Ba/F3 cell line for 12 hours. […] Three days after transduction, 2 μg/ml puromycin (Invitrogen) was added to the RPMI media. Cell lines were then grown in the absence of IL-3 for two weeks and cell viability was assessed every three days using the Cell Titer Glo assay (Progema).
(§3) Briefly, 2000-3000 cells per well were plated in 384-well plates (Greiner Bio-One) in technical triplicate. Cells were treated with seven different concentrations of tyrosine kinase inhibitors or vehicle alone at a final volume of 40 μL per well. After 3 days, 11 μL of Cell Titer Glo was added to each well. Plates were shaken for 15 minutes, and bioluminescence was determined using a FLUOstar OPTIMA multi-mode micro-plate reader (BMG LABTECH). Bioluminescence values were normalized to DMSO treated cells, and normalized values were plotted in GraphPad Prism using non-linear regression fit to normalized data with a variable slope.

EGFR L718V = EGFR L718V (Homo sapiens, UniProt P00533, L718V); details: read-out: IC50 Values; Ba/F3 cells expressing EGFR L718V, 72 hours
Method: as §1, §2, §3

EGFR G719S = EGFR G719S (Homo sapiens, UniProt P00533, G719S); details: read-out: IC50 Values; Ba/F3 cells expressing EGFR G719S, 72 hours
Method: as §1, §2, §3

EGFR G719A = EGFR G719A (Homo sapiens, UniProt P00533, G719A); details: read-out: IC50 Values; Ba/F3 cells expressing EGFR G719A, 72 hours
Method: as §1, §3

EGFR T725M = EGFR T725M (Homo sapiens, UniProt P00533, T725M); details: read-out: IC50 Values; Ba/F3 cells expressing EGFR T725M, 72 hours
Method: as §1, §2, §3

EGFR l740duplPVAK = EGFR l740duplPVAK (Homo sapiens, UniProt P00533, DUP740-745); details: read-out: IC50 Values; Ba/F3 cells expressing EGFR l740duplPVAK, 72 hours
Method: as §1, §2, §3

EGFR L747P = EGFR L747P (Homo sapiens, UniProt P00533, L747P); details: read-out: IC50 Values; Ba/F3 cells expressing EGFR L747P, 72 hours
Method: as §1, §2, §3

EGFR L747S = EGFR L747S (Homo sapiens, UniProt P00533, L747S); details: read-out: IC50 Values; Ba/F3 cells expressing EGFR L747S, 72 hours
Method: as §1, §2, §3

EGFR K754E = EGFR K754E (Homo sapiens, UniProt P00533, K754E); details: read-out: IC50 Values; Ba/F3 cells expressing EGFR K754E, 72 hours
Method: as §1, §2, §3

EGFR K757R = EGFR K757R (Homo sapiens, UniProt P00533, K757R); details: read-out: IC50 Values; Ba/F3 cells expressing EGFR K757R, 72 hours
Method: as §1, §2, §3

EGFR S768dupSVD = EGFR S768dupSVD (Homo sapiens, UniProt P00533, DUP768-770); details: read-out: IC50 Values; Ba/F3 cells expressing EGFR S768dupSVD, 72 hours
Method: as §1, §2, §3

EGFR S768I V774M = EGFR S768I V774M (Homo sapiens, UniProt P00533, S768I/V774M); details: read-out: IC50 Values; Ba/F3 cells expressing EGFR S768I V774M, 72 hours
Method: as §1, §2, §3

EGFR V769L = EGFR V769L (Homo sapiens, UniProt P00533, V769L); details: read-out: IC50 Values; Ba/F3 cells expressing EGFR V769L, 72 hours
Method: as §1, §2, §3

EGFR N771dupN G724S = EGFR N771dupN G724S (Homo sapiens, UniProt P00533, DUP771-771/G724S); details: read-out: IC50 Values; Ba/F3 cells expressing EGFR N771dupN G724S, 72 hours
Method: as §1, §2, §3

EGFR V774M = EGFR V774M (Homo sapiens, UniProt P00533, V774M); details: read-out: IC50 Values; Ba/F3 cells expressing EGFR V774M, 72 hours
Method: as §1, §2, §3

EGFR S784F = EGFR S784F (Homo sapiens, UniProt P00533, S784F); details: read-out: IC50 Values; Ba/F3 cells expressing EGFR S784F, 72 hours
Method: as §1, §2, §3

EGFR L858R S784F = EGFR L858R S784F (Homo sapiens, UniProt P00533, L858R/S784F); details: read-out: IC50 Values; Ba/F3 cells expressing EGFR L858R S784F, 72 hours
Method: (§4) The transforming capability of the mutations was then evaluated by sustained cell viability following IL-3 deprivation. Activating EGFR mutant Ba/F3 cells were then screened against EGFR TKIs. Cell viability was determined by the Cell Titer Glo assay.
(§5) Ba/F3 cells expressing acquired atypical mutations spanning exons 18-21 were treated with inhibitors for 72 hours. […] Briefly, stable Ba/F3 cell lines were generated by retroviral transduction of Ba/F3 cell line for 12 hours. […] Three days after transduction, 2 μg/ml puromycin (Invitrogen) was added to the RPMI media. Cell lines were then grown in the absence of IL-3 for two weeks and cell viability was assessed every three days using the Cell Titer Glo assay (Progema).
as §3

EGFR Ex19del G724S = EGFR Ex19del G724S (Homo sapiens, UniProt P00533, DEL746-750/G724S); details: read-out: IC50 Values; Ba/F3 cells expressing EGFR Ex19del G724S, 72 hours
Method: as §4, §5, §3

EGFR Ex19delT854l = EGFR Ex19delT854l (Homo sapiens, UniProt P00533, DEL746-750/T854I); details: read-out: IC50 Values; Ba/F3 cells expressing EGFR Ex19delT854l, 72 hours
Method: as §4, §5, §3

EGFR L858R G724S = EGFR L858R G724S (Homo sapiens, UniProt P00533, G724S/L858R); details: read-out: IC50 Values; Ba/F3 cells expressing EGFR L858R G724S, 72 hours
Method: as §4, §5, §3

EGFR Ex19del L718V = EGFR Ex19del L718V (Homo sapiens, UniProt P00533, DEL746-750/L718V); details: read-out: IC50 Values; Ba/F3 cells expressing EGFR Ex19del L718V, 72 hours
Method: as §4, §5, §3

Molecule C=CC(=O)N1CC[C@@H](Oc2nc(Nc3ccc(N4CCC(N5CCN(C)CC5)CC4)cc3)c(C(N)=O)nc2CC)C1 [Naquotinib] has an IC50 (EGFR E709AG719S) of 48.1 nM, an IC50 (EGFR L718V) of 78.4 nM and an IC50 (EGFR G719S) of 36.7 nM. It also gave an IC50 (EGFR G719A) of 18.1 nM, an IC50 (EGFR T725M) of 77.6 nM and an IC50 (EGFR l740duplPVAK) of 67.7 nM. The IC50 (EGFR L747P) was 472 nM, the IC50 (EGFR L747S) was 120 nM and the IC50 (EGFR K754E) was 66 nM. For the same molecule, the IC50 (EGFR K757R) was 122 nM, the IC50 (EGFR S768dupSVD) was 153 nM and the IC50 (EGFR S768I V774M) was 66.2 nM. It also gave an IC50 (EGFR V769L) of 219 nM, an IC50 (EGFR N771dupN G724S) of 375 nM and an IC50 (EGFR V774M) of 38.5 nM. For the same molecule, the IC50 (EGFR S784F) was 70.2 nM, the IC50 (EGFR L858R S784F) was 354 nM and the IC50 (EGFR Ex19del G724S) was 697 nM. The IC50 (EGFR Ex19delT854l) was 112 nM, the IC50 (EGFR L858R G724S) was 108 nM and the IC50 (EGFR Ex19del L718V) was 13.9 nM.
